We go through 1 compound from patent US20080015186A1, “PHARMACEUTICAL CO[…] C[…] CANNABINOID RECEPTOR ANTAGONIST AND AN ANTIPSYCHOTIC” (SANOFI-AVENTIS, priority 2005, published 2008).

The assay can be described thus: Effect of rimonabant on the weight gain induced by treatment with risperidone (cumulative weight gain and feed consumption). It is filed as in vivo. Particulars: female Wistar rats on fat-rich feed, risperidone 0.3 mg/kg i.p., rimonabant 1 mg/kg p.o. (or vehicle p.o.). The procedure: Female Wistar rats, fed with a fat-rich feed for the three days preceding the treatment and during the treatment, are used.
Groups of 15 animals receive each day: • group 1: risperidone (0.3 mg/kg, i.p.) and the vehicle (p.o.); • group 2: risperidone (0.3 mg/kg, i.p.) and rimonabant (1 mg/kg, p.o.); • group 3: the two vehicles (i.p. and p.o.);
On the ninth day of the treatment, the cumulative weight gain over the nine days of treatment and the feed consumption on day 9 are measured.

As for `Cc1nc2n(c(=O)c1CCN1CCC(c3noc4cc(F)ccc34)CC1)CCCC2` [risperidone], the “Cumulative weight gain over the nine days of treatment” value (15/group, daily dosing for 9 days) is on record as 23.5 g ± 1.7. Under “day 9 of treatment”, the “Mean feed intake on the ninth day” value is reported as 15.0 g ± 0.7. For the setting “nine days of treatment”, the “Number of rats/group (%) with a weight gain <20 g” value was found to be 20% and the “Number of rats/group (%) with a weight gain >20 g” value stood at 80%.
